Assay results reported in ChEMBL document CHEMBL1201862, “PubChem BioAssay data set” (2004).
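Tested at 5 concentrations; 48 h exposure; 96-well plates; endpoints linearly interpolated, else capped at highest concentration. GI50 is the concentration that inhibits growth by half.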 The source made the active and inactive calls. Cut-off read from the data, not from the text of the source: active = GI50 up to about 1.1 µM and inactive = higher.

Experiments:
Assay in all cases: growth of human tumour cells (NCI), 48 h
HCC 2998 = system: HCC 2998
RPMI-8226 = system: RPMI-8226
DU-145 = system: DU-145
ACHN = system: ACHN
TK-10 = system: TK-10
HOP-62 = system: HOP-62
A549 = system: A549
SF-539 = system: SF-539
OVCAR-8 = system: OVCAR-8
NCI-H226 = system: NCI-H226
HT-29 = system: HT-29
UO-31 = system: UO-31
MDA-MB-231 = system: MDA-MB-231
NCI/ADR-RES = system: NCI/ADR-RES
NCI-H460 = system: NCI-H460
SK-MEL-28 = system: SK-MEL-28
T47D = system: T47D
SNB-19 = system: SNB-19
UACC-62 = system: UACC-62
SK-MEL-5 = system: SK-MEL-5
SK-OV-3 = system: SK-OV-3
Malme-3M = system: Malme-3M
MDA-N = system: MDA-N
MOLT-4 = system: MOLT-4
OVCAR-5 = system: OVCAR-5
RXF 393 = system: RXF 393
SR = system: SR
NCI-H23 = system: NCI-H23
SNB-75 = system: SNB-75
SF-268 = system: SF-268
SW-620 = system: SW-620
KM12 = system: KM12
U-251 = system: U-251
MCF7 = system: MCF7
COLO 205 = system: COLO 205
OVCAR-4 = system: OVCAR-4
MDA-MB-435 = system: MDA-MB-435
PC-3 = system: PC-3
SN12C = system: SN12C
HCT-116 = system: HCT-116
A498 = system: A498
K562 = system: K562
CCRF-CEM = system: CCRF-CEM
HL-60 = system: HL-60
LOX IMVI = system: LOX IMVI
Hs-578T = system: Hs-578T
786-0 = system: 786-0
HOP-92 = system: HOP-92
SK-MEL-2 = system: SK-MEL-2
UACC-257 = system: UACC-257
IGROV-1 = system: IGROV-1
CAKI-1 = system: CAKI-1
HCT-15 = system: HCT-15
NCI-H522 = system: NCI-H522
M14 = system: M14
EKVX = system: EKVX
SF-295 = system: SF-295
OVCAR-3 = system: OVCAR-3
BT-549 = system: BT-549

Measured: GI50

CCSc1cc2c(cc1O)CC[C@@H]1[C@@H]2CC[C@]2(C)[C@@H](O)CC[C@@H]12
5.68 µM: HCT-15
inactive: HCC 2998 13.9 µM | RPMI-8226 8.17 µM | DU-145 24.5 µM | ACHN 11.3 µM | TK-10 27.1 µM | HOP-62 15.7 µM | A549 4.3 µM | SF-539 15.8 µM | OVCAR-8 13.3 µM | NCI-H226 15 µM | HT-29 10.8 µM | UO-31 15.4 µM | MDA-MB-231 4.94 µM | NCI/ADR-RES 5.18 µM | NCI-H460 6.68 µM | SK-MEL-28 14.2 µM | T47D > 10 µM | SNB-19 12.1 µM | UACC-62 11.2 µM | SK-MEL-5 10.8 µM | SK-OV-3 17.8 µM | Malme-3M 11.2 µM | MDA-N 2.67 µM | MOLT-4 4.98 µM | OVCAR-5 23 µM | RXF 393 21.5 µM | SR 4.88 µM | NCI-H23 18.8 µM | SNB-75 15.2 µM | SF-268 29 µM | SW-620 3.47 µM | KM12 8.11 µM | U-251 12.6 µM | MCF7 10.3 µM | COLO 205 18.3 µM | OVCAR-4 18.3 µM | MDA-MB-435 1.98 µM | PC-3 5.71 µM | SN12C 17.7 µM | HCT-116 8.57 µM | A498 15.6 µM | K562 4.12 µM | CCRF-CEM 10.1 µM | HL-60 4.54 µM | LOX IMVI 10.8 µM | Hs-578T 5.33 µM | 786-0 12.2 µM | HOP-92 8.77 µM | SK-MEL-2 16.3 µM | UACC-257 15.1 µM | IGROV-1 11.7 µM | CAKI-1 12.6 µM | NCI-H522 6.61 µM

C#CC1=CC(=O)C(OC)=CC1=O
inactive: HCC 2998 30.1 µM | RPMI-8226 17.8 µM | DU-145 17.8 µM | ACHN 3.44 µM | TK-10 48.6 µM | HOP-62 16.5 µM | A549 33.9 µM | SF-539 42.7 µM | NCI-H226 19.3 µM | HT-29 23.3 µM | UO-31 4.68 µM | MDA-MB-231 16.4 µM | NCI/ADR-RES 32.9 µM | M14 16.5 µM | EKVX 23.3 µM | NCI-H460 34.5 µM | SK-MEL-28 37.2 µM | T47D 23 µM | SNB-19 > 100 µM | UACC-62 15.7 µM | SK-MEL-5 16.2 µM | SK-OV-3 > 100 µM | Malme-3M 25.9 µM | MDA-N 19.1 µM | MOLT-4 3.25 µM | OVCAR-5 33.5 µM | RXF 393 15.2 µM | SR 6.7 µM | NCI-H23 20.9 µM | SF-268 43.4 µM | SW-620 17.5 µM | KM12 58.7 µM | U-251 31.9 µM | MCF7 14.8 µM | COLO 205 27 µM | MDA-MB-435 18.1 µM | PC-3 53.2 µM | SF-295 29.4 µM | SN12C 17.6 µM | HCT-116 13.3 µM | A498 > 100 µM | K562 5.06 µM | CCRF-CEM 7.36 µM | HL-60 2.44 µM | LOX IMVI 17.6 µM | Hs-578T 95.1 µM | 786-0 3.01 µM | HOP-92 15.6 µM | SK-MEL-2 15.7 µM | OVCAR-3 33.5 µM | UACC-257 41.6 µM | CAKI-1 18.6 µM | NCI-H522 1.77 µM
active: SNB-75 < 0.01 µM
16.4 µM: HCT-15

CS(=O)(=O)O[C@H]1CN2C[C@@H](O)[C@@H](O)[C@H]2[C@H]1CO.[B]
inactive: HCC 2998 > 100 µM | RPMI-8226 > 100 µM | DU-145 > 100 µM | ACHN > 100 µM | TK-10 > 100 µM | HOP-62 > 100 µM | A549 > 100 µM | SF-539 > 100 µM | OVCAR-8 > 100 µM | BT-549 > 100 µM | NCI-H226 > 100 µM | HT-29 > 100 µM | UO-31 > 100 µM | MDA-MB-231 > 100 µM | NCI/ADR-RES > 100 µM | M14 > 100 µM | EKVX > 100 µM | NCI-H460 > 100 µM | SK-MEL-28 > 100 µM | T47D > 100 µM | SNB-19 > 100 µM | UACC-62 > 100 µM | SK-MEL-5 > 100 µM | SK-OV-3 > 100 µM | Malme-3M > 100 µM | MOLT-4 > 100 µM | OVCAR-5 > 100 µM | RXF 393 > 100 µM | SR > 100 µM | NCI-H23 > 100 µM | SF-268 > 100 µM | SW-620 > 100 µM | KM12 > 100 µM | U-251 > 100 µM | MCF7 > 100 µM | COLO 205 > 100 µM | OVCAR-4 > 100 µM | MDA-MB-435 > 100 µM | PC-3 > 100 µM | SF-295 > 100 µM | HCT-116 > 100 µM | A498 > 100 µM | K562 > 100 µM | LOX IMVI > 100 µM | 786-0 > 100 µM | SK-MEL-2 > 100 µM | OVCAR-3 > 100 µM | UACC-257 > 100 µM | IGROV-1 > 100 µM | CAKI-1 > 100 µM
active: CCRF-CEM 0.333 µM
> 100 µM: HCT-15
